Where two headings read alike, the source gives them in different places.
How the values were obtained:
[1] = tested on: L-aromatic amino acid decarboxylase; conditions: cited from earlier work; for enzymatic decarboxylation of the stereoisomers: L- and D-, threo- and erythro-isomers; for nature of the norepinephrine formed: product of decarboxylation
heart norepinephrine = conditions: rats, combination with decarboxylase inhibitor; cited from earlier work
brain norepinephrine = conditions: rats, cited from earlier work
[2] = tested on: parkinson's disease, freezing phenomenon; experiment: Clinical tests 1 to 7: treatment of parkinsonian patients with DL-threo-DOPS and a decarboxylase inhibitor; format: in vivo, human
Procedure: The patient was a person suffering from parkinson's disease, having a disease history of 12 years after being affected by the disease. The primary clinical features were moderate rigidity of the four limbs and trunk were slight tremor. At about 6 years after the start of the disease, L-DOPA therapy was started.
[…] The patient also had difficulty in writing.
This patient was then treated with DL-threo-DOPS in the following dosage, while keeping the administration of L-DOPA, the decarboxylase inhibitor (benserazide hydrochloride) and trihexyphenidyl hydrochloride at strictly the same dosage throughout the period of trial.
DL-threo-DOPS was orally administered to the patient in the form of a capsule (DL-DOPS content: 200 mg) as follows:
First to 2nd day 6 capsules per day
3rd to 4th day 9 capsules per day
5th to 6th day 12 capsules per day
It is noted that the decarboxylase inhibitor was not newly administered, because it was already administered together with L-DOPA.
The patient was a person suffering from parkinson's disease, whose main syndrome was "pure akinesia" which was first described by one of the present inventors [Narabayashi et al, Advances in Parkinsonism (eds., W. Birkmayer and O. Hornykiewicz) Roche Basle, pages 335-342 (1976)].
But on the other hand, motion such as going up or down the stairs could be done rather normally. Accordingly, such a syndrome is also called paradoxical kinesia.
The patient was treated with DL-threo-DOPS and a decarboxylase inhibitor (carbidopa) in the same dosage as in the above Clinical Test 1.
In the same manner, other patients as shown in Table 1 were treated with threo-DOPS and a decarboxylase inhibitor. The results are shown in Table 1 together with the data in the above Clinical Tests 1 and 2.

[3] = acute toxicity (LD50) in mice; conditions: mouse, in vivo
[4] = Side effects in the clinical tests; format: in vivo, human
parkinson's disease [5] = experiment: Surface electromyogram, patient of Clinical Test 6; format: in vivo, human; conditions: DL-threo-DOPS 600 mg and carbidopa 60 mg, vs before administration
Procedure: FIGS. 2, 3 and 4 each show surface electromyograms after DL-threo-DOPS and carbidopa were administered in comparison with the surface electromygrams before administration of the drugs. The data of FIG. 2 relate to a tremor of the right upper arm at static state. The data of FIG. 3 relate to tonic stretch reflexes of the extensor muscle of right forearm. The data of FIG. 4 indicate improvement of the skillfulness when flexion and extension movement at the right wrist joint was tried. […] E in FIG. 3 represents the period of passive stretching.
As to the patient in the above Clinical Test 6, the effect of administration of DL-threo-DOPS (600 mg) and carbidopa (60 mg) was measured by surface electromyogram, which was compared with that measured before the administration of drugs.

decarboxylase = conditions: DL-threo-DOPS vs DL-erythro-DOPS; printed as "1/10 smaller"; cited from earlier work
parkinson's disease [6] = experiment: Speed of response (transit time between two switches), patient of Clinical Test 6; format: in vivo, human; conditions: Clinical Test 6 patient
Procedure: The abscissa axis represents time (hour) after administration, and the ordinate axis means transit time (msec). The filled squares represent the transit time after DL-threo-DOPS intake and the open squares on the right side represent the transit time 2 hours after administation of L-DOPA, benserazid hydrochloride and trihexyphenidyl hydrochloride.
In order to quantitatively analyze the improvement of the syndromes in the above clinical tests, a speed of response was measured as to some patients in the tests.
Method for the measurement: The transit time was measured by using two switches (distance: 15 cm) in the same manner as described in Masao Kato and Kazuya Ando, "Parkinson's Disease, Physiopathology and Therapy", page 106, issued by Kanehara Shuppan on Mar. 31, 1978.
Results: The data of the patient in the above Clinical Test 6 are shown in the attached FIG. 1. As is shown in the figure, when it was measured before administration of DL-threo-DOPS (600 mg) and carbidopa (60 mg) and 1, 3, 4, 6 and 8 hours after the administration, the effect peaked at 4 hours after administration, and at the same time, the transit time was shortened about 170 msec as compared to that before administration of the drugs.

narcolepsy = conditions: six patients, 200 mg intravenous; cited from earlier work
parkinson's disease [7] = conditions: human, 300 mg intravenous; cited from earlier work
[8] = Clinical Test 1, 3rd day, with L-DOPA, benserazide, trihexyphenidyl
[9] = Clinical Test 1, 5th day, with L-DOPA, benserazide, trihexyphenidyl

N[C@H](C(=O)O)[C@@H](O)c1ccc(O)c(O)c1 [L-erythro-DOPS, reference compound]
enzymatic decarboxylation of the stereoisomers [1]: can be decarboxylated
nature of the norepinephrine formed [1]: not natural

NC(C(=O)O)C(O)c1ccc(O)c(O)c1 (centres unmarked) [DOPS]
decarboxylation to norepinephrine ([1]; in vivo and in vitro): can be decarboxylated

N[C@H](C(=O)O)[C@H](O)c1ccc(O)c(O)c1 [L-threo-DOPS]
DOPS-induced rise of norepinephrine in the heart (heart norepinephrine): abolished
enzymatic decarboxylation of the stereoisomers [1]: can be decarboxylated
nature of the norepinephrine formed [1]: confirmed as natural l-norepinephrine
DOPS-induced rise of norepinephrine in the brain (brain norepinephrine; combination with decarboxylase inhibitor): did not enhance
accumulation of norepinephrine in the brain (brain norepinephrine; injection into a cerebral ventricle): remarkable
accumulation of norepinephrine in the brain (brain norepinephrine; intraperitoneal administration): negligible
penetration through B.B.B. (brain norepinephrine): poor penetration

N[C@@H](Cc1ccc(O)c(O)c1)C(=O)O [L-DOPA, L-3,4-dihydroxyphenylalanine, reference compound]
stiffness and tremor ([2]; Clinical Test 1 patient, earlier L-DOPA 400 mg, benserazide 100 mg, trihexyphenidyl 6 mg daily, oral): the stiffness and tremor were improved
stiffness and tremor ([2]; Clinical Test 1 patient, earlier L-DOPA therapy): improved the stiffness and tremor remarkably
freezing ([2]; Clinical Test 1 patient, increased amount of L-DOPA): it became worse

N[C@H](C(=O)O)[C@H](O)c1ccc(O)c(O)c1 (relative stereo) [threo-DOPS, threo-3,4-dihydroxyphenylserine]
LD50 ([3]; ip): ~10000 mg/kg
LD50 ([3]; po): > 10000 mg/kg
serious side effects [4]: serious side effects were not observed

N[C@H](C(=O)O)[C@H](O)c1ccc(O)c(O)c1 (relative stereo) [DL-threo-DOPS]
behavior and expression [2, 8]: more active behavior and expression
difficulty in writing [2, 8]: the difficulty in writing had disappeared
speaking [2, 8]: speaking more clearly than before
walking [2, 8]: much easier
falling down during walking [2, 9]: no falling down during walking within rooms and passageways
walking [2, 9]: could walk smoothly without any assistance and the steps of the walk became almost normal with wide steps
improvement of the syndrome on maintenance ([2]; Clinical Test 1, reduced dose of 9 capsules per day): the improvement of the syndrome is still continuing
walking and freezing in walking ([2]; Clinical Test 2, DL-threo-DOPS 1,800 mg and carbidopa 90 mg): the walking was improved and the freezing in walking disappeared
walking ([2]; Clinical Test 2, several days after reaching DL-threo-DOPS 1,800 mg and carbidopa 90 mg): the walking became almost normal
tremor of the right upper arm at the static state (parkinson's disease [5]; FIG. 2): remarkably decreased or improved
rigidity (stiffness) of the extensor muscle of the right forearm (parkinson's disease [5]; FIG. 3): remarkably decreased and improved
tonic stretch reflex of the extensor muscle of the right forearm (parkinson's disease [5]; FIG. 3): reduced
skillfulness, flexion and extension movement at the right wrist joint (parkinson's disease [5]; FIG. 4): remarkably improved
rate of decarboxylation relative to DL-erythro-DOPS (decarboxylase): 1/10
shortening of transit time compared to before administration (parkinson's disease [6]; 4 hours after DL-threo-DOPS 600 mg and carbidopa 60 mg): about 170 msec
time of peak effect on transit time after administration (parkinson's disease [6]; DL-threo-DOPS 600 mg and carbidopa 60 mg): 4 h
transit time compared with L-DOPA combination (parkinson's disease [6]; vs 2 hours after L-DOPA 100 mg, benserazide 25 mg, trihexyphenidyl hydrochloride 2 mg): shorter than the transit time measured at 2 hours after administration of L-DOPA
effect on narcolepsy (narcolepsy): ineffective
effect on parkinson's disease (parkinson's disease [7]): ineffective
